Source: ChEMBL document CHEMBL1201862, “PubChem BioAssay data set” (2004)
Active and inactive are the calls of the source.

Legend:
Bcl-2-related protein A1 = biological target: T1, Bcl-2-related protein A1 (Mus musculus, UniProt Q07440); format: functional;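 note: confirmatory dose–response counterscreen on Bfl-1, used to check hits from a UBC13 polyubiquitin inhibitor campaign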
T1 sequence (Q07440 whole entry): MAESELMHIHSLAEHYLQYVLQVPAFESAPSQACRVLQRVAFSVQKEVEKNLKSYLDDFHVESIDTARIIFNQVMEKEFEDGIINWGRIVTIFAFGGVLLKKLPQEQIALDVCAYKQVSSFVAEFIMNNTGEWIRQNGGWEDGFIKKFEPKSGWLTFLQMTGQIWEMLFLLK

[1] = biological target: T2, Ubiquitin-conjugating enzyme E2 N (Homo sapiens, UniProt P61088); format: functional
T2 sequence (P61088 whole entry): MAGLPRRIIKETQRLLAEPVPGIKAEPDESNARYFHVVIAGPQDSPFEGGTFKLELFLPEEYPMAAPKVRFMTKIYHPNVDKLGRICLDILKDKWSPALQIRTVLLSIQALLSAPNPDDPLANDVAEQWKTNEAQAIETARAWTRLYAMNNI

[2] = biological target: T2, Ubiquitin-conjugating enzyme E2 N; format: functional; remark: listed apart in the source
[3] = biological target: T3, Short transient receptor potential channel 4 (Mus musculus, UniProt Q9QUQ5); assay: calcium entry via TRPC4 opening agents – cell-based, HEK293 TRPC4/mu-opioid, Fluo-4 calcium, dose response (AID 434937); format: functional
T3 sequence (Q9QUQ5 whole entry): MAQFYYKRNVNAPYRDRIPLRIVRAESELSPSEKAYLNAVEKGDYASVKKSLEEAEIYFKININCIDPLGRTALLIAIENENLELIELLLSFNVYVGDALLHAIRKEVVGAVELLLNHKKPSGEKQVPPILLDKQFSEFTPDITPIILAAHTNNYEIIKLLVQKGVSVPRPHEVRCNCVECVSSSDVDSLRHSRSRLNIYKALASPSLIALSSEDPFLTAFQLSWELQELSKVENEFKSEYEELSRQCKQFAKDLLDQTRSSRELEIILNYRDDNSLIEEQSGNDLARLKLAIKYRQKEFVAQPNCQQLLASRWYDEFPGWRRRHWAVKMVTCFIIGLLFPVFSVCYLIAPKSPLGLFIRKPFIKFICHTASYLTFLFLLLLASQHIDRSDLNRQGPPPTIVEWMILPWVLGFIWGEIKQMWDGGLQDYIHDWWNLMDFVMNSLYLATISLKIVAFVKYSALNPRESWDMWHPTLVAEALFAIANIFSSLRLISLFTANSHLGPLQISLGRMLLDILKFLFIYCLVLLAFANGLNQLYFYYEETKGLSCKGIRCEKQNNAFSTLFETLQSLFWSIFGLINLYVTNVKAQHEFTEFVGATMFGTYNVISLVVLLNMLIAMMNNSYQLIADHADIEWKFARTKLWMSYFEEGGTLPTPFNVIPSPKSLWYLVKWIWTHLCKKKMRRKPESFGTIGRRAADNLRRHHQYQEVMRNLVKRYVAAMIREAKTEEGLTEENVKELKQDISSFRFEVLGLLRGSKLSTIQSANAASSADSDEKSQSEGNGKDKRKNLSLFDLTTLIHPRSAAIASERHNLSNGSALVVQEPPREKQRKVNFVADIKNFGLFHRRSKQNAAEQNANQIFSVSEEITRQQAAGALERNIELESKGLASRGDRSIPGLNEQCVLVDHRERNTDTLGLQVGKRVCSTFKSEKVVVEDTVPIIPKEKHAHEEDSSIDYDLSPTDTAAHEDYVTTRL

[4] = Luminescence Cell-Based Dose Confirmation HTS to Identify Inhibitors of Platelet Dense Granule Release. [Related pubchem assays: 1663 (Primary HTS), 1678 (Summary of Project)]; format: functional
[5] = biological target: Luciferin 4-monooxygenase (Photinus pyralis, UniProt P08659); assay: inhibition of purified Photinus pyralis luciferase – biochemical, luminescence, dose response (AID 1891)
Luciferin 4-monooxygenase, sequence (P08659 whole entry): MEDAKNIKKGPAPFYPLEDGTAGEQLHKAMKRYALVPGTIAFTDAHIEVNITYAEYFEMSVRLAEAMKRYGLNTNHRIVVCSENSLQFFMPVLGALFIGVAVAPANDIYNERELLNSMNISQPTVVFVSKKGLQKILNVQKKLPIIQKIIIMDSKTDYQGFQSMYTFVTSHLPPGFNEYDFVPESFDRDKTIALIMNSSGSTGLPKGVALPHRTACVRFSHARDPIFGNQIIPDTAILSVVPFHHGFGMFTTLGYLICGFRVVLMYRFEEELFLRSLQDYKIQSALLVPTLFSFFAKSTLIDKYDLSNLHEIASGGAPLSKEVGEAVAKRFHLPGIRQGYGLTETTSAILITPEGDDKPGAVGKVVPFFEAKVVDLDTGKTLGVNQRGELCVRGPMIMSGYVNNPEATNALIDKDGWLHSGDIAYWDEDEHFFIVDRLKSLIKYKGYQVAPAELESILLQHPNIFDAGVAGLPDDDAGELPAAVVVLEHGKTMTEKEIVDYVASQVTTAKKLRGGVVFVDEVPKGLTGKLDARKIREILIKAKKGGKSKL

[6] = biological target: T4, Tyrosine-protein phosphatase non-receptor type 7 (Homo sapiens, UniProt P35236); format: functional
T4 sequence (P35236 whole entry): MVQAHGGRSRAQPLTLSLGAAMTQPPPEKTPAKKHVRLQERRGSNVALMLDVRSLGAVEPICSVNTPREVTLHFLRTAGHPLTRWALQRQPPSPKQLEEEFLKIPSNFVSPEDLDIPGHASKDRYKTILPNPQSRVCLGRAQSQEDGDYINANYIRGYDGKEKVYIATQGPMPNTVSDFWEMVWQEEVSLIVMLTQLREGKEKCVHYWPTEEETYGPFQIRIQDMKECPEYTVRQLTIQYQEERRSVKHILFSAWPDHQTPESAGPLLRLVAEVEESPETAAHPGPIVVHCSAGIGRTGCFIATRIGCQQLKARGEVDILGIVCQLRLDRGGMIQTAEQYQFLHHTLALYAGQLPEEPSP

[7] = biological target: T5, Tyrosine-protein phosphatase non-receptor type 22 (Homo sapiens, UniProt Q9Y2R2); format: functional
T5 sequence (Q9Y2R2 whole entry): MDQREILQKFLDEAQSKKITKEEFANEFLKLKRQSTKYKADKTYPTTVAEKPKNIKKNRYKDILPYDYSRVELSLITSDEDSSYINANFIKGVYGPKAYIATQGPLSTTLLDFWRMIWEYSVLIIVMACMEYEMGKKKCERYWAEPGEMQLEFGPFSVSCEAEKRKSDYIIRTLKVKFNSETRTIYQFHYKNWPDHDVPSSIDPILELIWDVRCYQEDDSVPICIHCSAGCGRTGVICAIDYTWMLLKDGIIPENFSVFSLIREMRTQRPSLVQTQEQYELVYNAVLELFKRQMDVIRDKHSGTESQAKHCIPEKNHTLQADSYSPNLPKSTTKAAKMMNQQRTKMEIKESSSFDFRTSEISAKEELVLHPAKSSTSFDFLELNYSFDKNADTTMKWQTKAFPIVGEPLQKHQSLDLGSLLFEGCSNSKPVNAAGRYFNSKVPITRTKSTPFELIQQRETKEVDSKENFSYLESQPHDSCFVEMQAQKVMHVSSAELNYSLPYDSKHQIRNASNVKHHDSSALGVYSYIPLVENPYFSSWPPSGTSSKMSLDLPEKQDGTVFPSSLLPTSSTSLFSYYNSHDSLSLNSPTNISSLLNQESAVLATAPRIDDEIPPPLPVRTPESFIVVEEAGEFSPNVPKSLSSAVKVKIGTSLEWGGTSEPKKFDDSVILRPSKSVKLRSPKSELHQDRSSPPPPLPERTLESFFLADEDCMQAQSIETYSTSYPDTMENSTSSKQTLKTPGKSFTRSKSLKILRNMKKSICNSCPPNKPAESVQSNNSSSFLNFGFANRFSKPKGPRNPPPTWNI

[8] = biological target: T5, Tyrosine-protein phosphatase non-receptor type 22; format: functional; remark: listed apart in the source
Cytochrome P450 2D6 = Cytochrome P450 2D6 (Homo sapiens, UniProt P10635);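 note: CYP2D6 member of a cytochrome P450 panel assay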
Cytochrome P450 2D6, sequence (P10635 whole entry): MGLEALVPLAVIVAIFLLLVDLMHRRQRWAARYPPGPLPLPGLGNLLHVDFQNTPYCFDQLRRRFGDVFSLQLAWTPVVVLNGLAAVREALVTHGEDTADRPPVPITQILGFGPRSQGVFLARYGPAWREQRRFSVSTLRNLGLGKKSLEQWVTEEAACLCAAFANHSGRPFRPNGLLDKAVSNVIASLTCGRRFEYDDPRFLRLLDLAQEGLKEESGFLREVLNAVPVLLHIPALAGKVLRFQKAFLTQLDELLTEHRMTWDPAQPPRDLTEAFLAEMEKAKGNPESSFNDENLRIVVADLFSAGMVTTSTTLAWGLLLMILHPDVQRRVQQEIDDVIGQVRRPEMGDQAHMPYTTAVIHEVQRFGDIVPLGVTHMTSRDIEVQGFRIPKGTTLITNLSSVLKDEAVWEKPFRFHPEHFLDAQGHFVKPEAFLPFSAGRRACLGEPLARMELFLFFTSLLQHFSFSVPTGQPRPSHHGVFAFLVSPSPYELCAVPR

Cytochrome P450 3A4 = Cytochrome P450 3A4 (Homo sapiens, UniProt P08684);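 note: CYP3A4 tested as one member of a cytochrome P450 panel screen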
Cytochrome P450 3A4, sequence (P08684 whole entry): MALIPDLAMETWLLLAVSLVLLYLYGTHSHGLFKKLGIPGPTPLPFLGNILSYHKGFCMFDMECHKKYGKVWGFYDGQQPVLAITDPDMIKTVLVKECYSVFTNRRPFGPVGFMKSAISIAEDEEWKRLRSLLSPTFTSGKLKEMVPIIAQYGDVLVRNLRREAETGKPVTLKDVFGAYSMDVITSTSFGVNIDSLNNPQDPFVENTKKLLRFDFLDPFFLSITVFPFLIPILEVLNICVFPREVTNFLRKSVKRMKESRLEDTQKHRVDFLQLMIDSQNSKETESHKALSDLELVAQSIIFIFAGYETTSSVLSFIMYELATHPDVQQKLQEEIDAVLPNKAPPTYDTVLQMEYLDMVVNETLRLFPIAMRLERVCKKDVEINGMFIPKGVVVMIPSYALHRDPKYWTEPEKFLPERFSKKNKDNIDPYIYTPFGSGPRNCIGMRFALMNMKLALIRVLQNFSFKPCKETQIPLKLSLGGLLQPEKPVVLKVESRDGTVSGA

CHO-K1 = assay: (§1) Counterscreen for antagonists of the orexin 1 receptor (OX1R; HCRTR1): Homogeneous time resolved fluorescence (HTRF)-based cell-based dose response assay to identify antagonists of the parental CHO-K1 cell line. [Related pubchem assays (depositor defined):AID434989, AID435008, AID463079, AID485270, AID492963, AID492964, AID492965, AID493232, AID504699, AID504701]; format: functional; conditions: Cricetulus griseus
[9] = biological target: T6, Orexin/Hypocretin receptor type 1 (Homo sapiens, UniProt O43613); assay: (§2) Fluorescence-based cell-based high throughput dose response assay for antagonists of the orexin 1 receptor (OX1R; HCRTR1). [Related pubchem assays (depositor defined):AID434989, AID435008, AID463079, AID485270, AID492963, AID492964, AID492965, AID493232, AID504717, AID504718]; format: functional
T6 sequence (O43613 whole entry): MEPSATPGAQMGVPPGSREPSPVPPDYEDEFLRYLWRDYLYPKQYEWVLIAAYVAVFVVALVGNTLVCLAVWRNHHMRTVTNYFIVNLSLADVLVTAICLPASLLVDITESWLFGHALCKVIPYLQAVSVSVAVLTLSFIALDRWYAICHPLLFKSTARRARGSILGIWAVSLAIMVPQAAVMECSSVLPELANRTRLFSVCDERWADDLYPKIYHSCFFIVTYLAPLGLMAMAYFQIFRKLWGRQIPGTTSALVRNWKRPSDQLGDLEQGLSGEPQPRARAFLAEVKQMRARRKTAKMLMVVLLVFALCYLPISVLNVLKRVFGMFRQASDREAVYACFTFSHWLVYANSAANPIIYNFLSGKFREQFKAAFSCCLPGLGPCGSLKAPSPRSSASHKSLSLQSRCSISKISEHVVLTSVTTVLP

[10] = biological target: T6, Orexin/Hypocretin receptor type 1; assay: as §2, with “Homogeneous Time Resolved Fluorescence (HTRF)-based” for “Fluorescence-based”; format: functional
[11] = as §1, with “Fluorescence-based” for “Homogeneous time resolved fluorescence (HTRF)-based”, “cell-based high throughput” for “cell-based”, “CHO” for “CHO-K1”; format: functional
Beta-lactamase [12] = biological target: Beta-lactamase (Salmonella choleraesuis (strain SC-B67), UniProt Q5J463); assay: Epi-absorbance-based counterscreen for selective VIM-2 inhibitors: dose response biochemical high throughput screening assay to identify inhibitors of TEM-1 serine-beta-lactamase.
Beta-lactamase (Salmonella choleraesuis (strain SC-B67), UniProt Q5J463), sequence (Q5J463 whole entry): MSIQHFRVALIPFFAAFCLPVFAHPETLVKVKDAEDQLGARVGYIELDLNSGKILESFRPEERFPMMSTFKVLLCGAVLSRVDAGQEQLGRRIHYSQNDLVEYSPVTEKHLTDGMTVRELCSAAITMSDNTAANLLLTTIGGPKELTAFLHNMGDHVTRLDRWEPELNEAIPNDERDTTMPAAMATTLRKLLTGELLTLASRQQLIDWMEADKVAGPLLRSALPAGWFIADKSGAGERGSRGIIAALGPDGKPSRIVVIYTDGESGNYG

Beta-lactamase [13] = biological target: T7, Beta-lactamase (Pseudomonas aeruginosa, UniProt Q79MP6); assay: […] counterscreen for selective VIM-2 inhibitors: dose response biochemical high throughput screening assay to identify inhibitors of IMP-1 metallo-beta-lactamase.
T7 sequence (Q79MP6 whole entry): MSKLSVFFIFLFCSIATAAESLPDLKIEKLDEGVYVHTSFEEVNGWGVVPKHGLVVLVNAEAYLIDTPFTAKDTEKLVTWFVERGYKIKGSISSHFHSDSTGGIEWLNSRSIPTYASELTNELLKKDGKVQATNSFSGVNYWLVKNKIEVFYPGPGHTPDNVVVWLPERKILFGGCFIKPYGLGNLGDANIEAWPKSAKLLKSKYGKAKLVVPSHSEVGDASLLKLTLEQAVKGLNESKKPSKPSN

Beta-lactamase [14] = biological target: T7, Beta-lactamase; assay: inhibition of IMP-1 beta-lactamase activity – biochemical, epi-absorbance, selectivity assay for VIM-2 inhibitor project, dose response (AID 1920)
Cytochrome P450 1A2 = biological target: T8, Cytochrome P450 1A2 (Homo sapiens, UniProt P05177);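 note: PubChem cytochrome P450 panel assay, CYP1A2 panel member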
T8 sequence (P05177 whole entry): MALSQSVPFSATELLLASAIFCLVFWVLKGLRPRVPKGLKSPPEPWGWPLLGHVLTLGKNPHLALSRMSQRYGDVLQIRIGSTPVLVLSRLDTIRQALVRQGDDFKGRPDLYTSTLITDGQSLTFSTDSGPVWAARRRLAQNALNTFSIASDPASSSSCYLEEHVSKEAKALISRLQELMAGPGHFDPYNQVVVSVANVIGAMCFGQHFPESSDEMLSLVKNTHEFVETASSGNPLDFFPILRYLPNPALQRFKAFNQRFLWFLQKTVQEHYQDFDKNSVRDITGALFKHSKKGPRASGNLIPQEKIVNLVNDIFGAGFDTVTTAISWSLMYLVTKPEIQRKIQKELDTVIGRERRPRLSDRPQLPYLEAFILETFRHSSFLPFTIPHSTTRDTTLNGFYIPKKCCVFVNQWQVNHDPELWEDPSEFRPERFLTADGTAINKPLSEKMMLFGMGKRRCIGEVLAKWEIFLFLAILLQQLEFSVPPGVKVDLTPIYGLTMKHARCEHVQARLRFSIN

Cytochrome P450 2C9 = Cytochrome P450 2C9 (Homo sapiens, UniProt P11712)
Cytochrome P450 2C9, sequence (P11712 whole entry): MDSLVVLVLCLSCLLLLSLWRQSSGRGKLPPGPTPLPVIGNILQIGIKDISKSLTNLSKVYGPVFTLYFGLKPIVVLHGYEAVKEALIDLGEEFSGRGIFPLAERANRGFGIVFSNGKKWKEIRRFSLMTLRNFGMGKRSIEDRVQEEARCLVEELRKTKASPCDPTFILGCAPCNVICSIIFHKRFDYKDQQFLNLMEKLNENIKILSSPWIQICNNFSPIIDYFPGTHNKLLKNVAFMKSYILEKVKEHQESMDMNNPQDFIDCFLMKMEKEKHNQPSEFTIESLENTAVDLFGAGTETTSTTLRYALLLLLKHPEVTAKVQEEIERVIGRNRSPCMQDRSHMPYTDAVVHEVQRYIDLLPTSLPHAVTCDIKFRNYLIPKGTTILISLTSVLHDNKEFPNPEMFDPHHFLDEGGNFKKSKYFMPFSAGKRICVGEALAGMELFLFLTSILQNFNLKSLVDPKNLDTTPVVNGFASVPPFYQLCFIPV

Cc1c(NC(=O)CCCN2C(=O)c3cccc4cccc(c34)C2=O)c(=O)n(-c2ccccc2)n1C
IC50 (Bcl-2-related protein A1): > 20 µM (inactive) | IC50 [1]: 8.02 µM (active) | IC50 [2]: 18.5 µM (active)

Cc1csc2c(N3CCN(C(=O)Nc4ccc(OC(F)(F)F)cc4)CC3)ncnc12
EC50 [3]: 1.88 µM (active)

CN1CCCC(OC(=O)c2cc(Br)ccc2Cl)C1 (stereo not given)
EC50 [4]: > 56.1 µM (not active) | EC50 [3]: 0.211 µM (active) | EC50 [5]: > 112 µM (not active)

COc1ccc(-c2nn(-c3ccccc3)cc2CNCc2cccnc2)c(F)c1
EC50 [3]: 5.96 µM (active)

CCN(CC(=O)NCc1cccs1)C(=O)c1cccc(S(=O)(=O)Nc2ccccc2OC)c1
IC50 (Bcl-2-related protein A1): > 20 µM (inactive) | IC50 [1]: 11.3 µM (active) | IC50 [2]: 17.1 µM (active)

CC1Cc2ccccc2N1CC(=O)Nc1cccc(S(N)(=O)=O)c1 (stereo not given)
IC50 [6]: > 79.4 µM (inactive) | IC50 [7]: > 79.4 µM (inactive) | IC50 [8]: > 79.4 µM (inactive)

O=C(Cn1cnc2ccccc2c1=O)NCCC(=O)Nc1ccc2c(c1)OCCO2
AC50 (Cytochrome P450 2D6): inconclusive | AC50 (Cytochrome P450 3A4): inconclusive

Oc1ccccc1-c1nc(NCC2CCCO2)c2ccccc2n1 (stereo not given)
IC50 (CHO-K1): > 66.2 µM (inactive) | IC50 [9]: 8.66 µM (active) | IC50 [10]: 3.73 µM (active) | IC50 [11]: 45.8 µM (inactive)

COc1ccc(Cc2nnc(NC(=O)c3ccccc3F)s2)cc1OC
IC50 [6]: > 79.4 µM (inactive) | IC50 [7]: > 79.4 µM (inactive) | IC50 [8]: > 79.4 µM (inactive)

CCCC(=O)Nc1nnc(SCC(=O)NCc2cccs2)s1
IC50 (Beta-lactamase [12]): > 59.6 µM (inactive) | IC50 (Beta-lactamase [13]): > 59.6 µM (inactive) | AC50 (Cytochrome P450 3A4): inconclusive | IC50 (Beta-lactamase [14]): > 59.6 µM (inactive) | AC50 (Cytochrome P450 1A2): 10 µM (inconclusive)

COC(=O)COc1ccc(/C=C2/SC(=O)N(CC(=O)N3CCCC3)C2=O)cc1Br
AC50 (Cytochrome P450 2C9): 10 µM (inconclusive) | AC50 (Cytochrome P450 3A4): inconclusive
